Like-named read-outs stand apart in the source and are kept apart here.
Legend:
[1] = target: T1, FGFR2 (Homo sapiens, UniProt P21802); assay: FGFR2 Biochemical Caliper Assay (KinEASE-TK kit); conditions: 0.07 nM FGFR2; compound incubated with protein 10 min, reaction 45 min at RT; read-out: FGFR2 Cliper IC50
T1 construct: purchased Carna 08-134
Description: Compounds of the present invention were tested in a FGFR1, FGFR2, and FGFR3 Biochemical Caliper Assay.
(§1) Enzyme activity was monitored using KinEASE-TK kit (CisBio, Cat.No. 62TK0PEC) according to manufacturer's instructions. […] Final enzyme concentration was 0.2 nM for FGFR1 and FGFR3, 0.07 nM for FGFR2. Compounds were prepared in 10 mM DMSO and serially diluted into 10 concentrations by 3-fold dilution. Prior to the initiation of the reaction by adding TK-substrate/ATP mixture, the compounds were incubated with protein for 10 min at RT. […] Plates were quenched by adding TK-antibody-Cryptate and Sa-XL665 mixture. After 60 min in the stop solution, read the signal on microplate reader (Molecular Devices, i3x), excitation of 320 nm and emission of 615 nm and 665 nm with a […]. IC50 values were calculated using Prism 7 (GraphPad).

[2] = target: T2, FGFR1 (Homo sapiens, UniProt P11362); assay: FGFR1 Biochemical Caliper Assay (KinEASE-TK kit); conditions: ratio FGFR1/FGFR2 of the biochemical assay
T2 construct: purchased Carna 08-133
T2 sequence (P11362 22-822): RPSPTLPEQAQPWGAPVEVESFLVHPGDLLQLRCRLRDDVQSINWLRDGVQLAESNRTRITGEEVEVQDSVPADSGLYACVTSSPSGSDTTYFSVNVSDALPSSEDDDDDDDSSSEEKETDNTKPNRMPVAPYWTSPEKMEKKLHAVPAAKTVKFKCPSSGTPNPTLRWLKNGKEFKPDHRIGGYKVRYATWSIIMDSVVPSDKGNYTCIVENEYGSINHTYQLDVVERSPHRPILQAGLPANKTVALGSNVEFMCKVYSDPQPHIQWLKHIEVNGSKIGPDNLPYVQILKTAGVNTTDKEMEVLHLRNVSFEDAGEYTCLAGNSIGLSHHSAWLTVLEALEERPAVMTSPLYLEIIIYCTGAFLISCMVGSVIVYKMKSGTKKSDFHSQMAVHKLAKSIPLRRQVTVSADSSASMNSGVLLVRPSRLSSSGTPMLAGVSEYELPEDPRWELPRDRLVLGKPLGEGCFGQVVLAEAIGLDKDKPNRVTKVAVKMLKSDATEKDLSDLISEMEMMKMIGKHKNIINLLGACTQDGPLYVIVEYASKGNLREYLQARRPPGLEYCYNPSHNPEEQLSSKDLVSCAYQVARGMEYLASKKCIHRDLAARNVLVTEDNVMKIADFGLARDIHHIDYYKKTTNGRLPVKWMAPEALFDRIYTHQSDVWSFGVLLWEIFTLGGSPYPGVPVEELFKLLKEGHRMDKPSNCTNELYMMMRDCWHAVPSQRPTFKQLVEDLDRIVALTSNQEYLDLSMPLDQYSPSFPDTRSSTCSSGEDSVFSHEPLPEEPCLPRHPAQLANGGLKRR
Description: as §1, with “Compounds of the present invention were tested in a FGFR1, FGFR2, and FGFR3 Biochemical Caliper Assay. Enzyme” for “Enzyme”

[3] = target: T3, FGFR3 (Homo sapiens, UniProt P22607); assay: FGFR3 Biochemical Caliper Assay (KinEASE-TK kit); conditions: ratio FGFR3/FGFR2 of the biochemical assay
T3 construct: purchased Carna 08-135
T3 sequence (P22607 23-806): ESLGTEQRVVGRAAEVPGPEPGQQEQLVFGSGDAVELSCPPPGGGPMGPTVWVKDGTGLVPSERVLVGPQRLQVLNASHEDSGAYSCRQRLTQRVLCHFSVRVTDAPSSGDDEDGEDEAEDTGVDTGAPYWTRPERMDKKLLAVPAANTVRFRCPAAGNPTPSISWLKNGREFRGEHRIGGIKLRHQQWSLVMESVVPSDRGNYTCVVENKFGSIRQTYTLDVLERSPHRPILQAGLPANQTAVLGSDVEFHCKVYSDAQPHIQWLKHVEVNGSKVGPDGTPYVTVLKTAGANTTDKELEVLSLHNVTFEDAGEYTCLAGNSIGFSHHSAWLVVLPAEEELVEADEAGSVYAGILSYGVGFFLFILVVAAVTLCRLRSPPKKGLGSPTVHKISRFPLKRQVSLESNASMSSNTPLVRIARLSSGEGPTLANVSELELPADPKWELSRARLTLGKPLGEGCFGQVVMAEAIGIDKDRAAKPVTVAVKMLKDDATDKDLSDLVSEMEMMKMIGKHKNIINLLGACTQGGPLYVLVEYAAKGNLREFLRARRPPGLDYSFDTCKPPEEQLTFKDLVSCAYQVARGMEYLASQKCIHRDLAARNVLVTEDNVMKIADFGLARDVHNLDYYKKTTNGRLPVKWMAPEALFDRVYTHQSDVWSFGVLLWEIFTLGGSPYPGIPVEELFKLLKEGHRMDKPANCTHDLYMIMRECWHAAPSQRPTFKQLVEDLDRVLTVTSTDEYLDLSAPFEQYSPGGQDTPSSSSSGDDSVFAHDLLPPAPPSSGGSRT
Description: as §1, with “Compounds of the present invention were tested in a FGFR1, FGFR2, and FGFR3 Biochemical Caliper Assay. Enzyme” for “Enzyme”

[4] = test system: SNU16 cells; assay: SNU16 Cancer Cell Line Proliferation Assay (CellTiter-Glo); assay type: cell-based
Description: Compounds of the present invention were also tested in a SNU16 Cancer Cell Line Proliferation Assay.
SNU16 cells were plated in 96-well clear bottom/white plate(Costar, Cat.No. 3610) at 5000 cells/well in 100 μl medium. Test compounds were prepared in a 10 mM DMSO stock solution and serially diluted into 9 concentrations by 3-fold dilution. 0.5 μl of each concentration of compound was added into the cell culture plates and DMSO as a control. The plates were incubated for 72 h at 37° C. and 5% CO2 incubator. 50 μl CellTiter-Glo reagent (Promega, G7572) was added into each well and then the plates were shaken gently for 10 min at room temperature. Luminescence was read on microplate reader (Molecular Devices, i3x), IC50 values were calculated using Prism 7 (GraphPad).

T1 sequence (P21802 22-821): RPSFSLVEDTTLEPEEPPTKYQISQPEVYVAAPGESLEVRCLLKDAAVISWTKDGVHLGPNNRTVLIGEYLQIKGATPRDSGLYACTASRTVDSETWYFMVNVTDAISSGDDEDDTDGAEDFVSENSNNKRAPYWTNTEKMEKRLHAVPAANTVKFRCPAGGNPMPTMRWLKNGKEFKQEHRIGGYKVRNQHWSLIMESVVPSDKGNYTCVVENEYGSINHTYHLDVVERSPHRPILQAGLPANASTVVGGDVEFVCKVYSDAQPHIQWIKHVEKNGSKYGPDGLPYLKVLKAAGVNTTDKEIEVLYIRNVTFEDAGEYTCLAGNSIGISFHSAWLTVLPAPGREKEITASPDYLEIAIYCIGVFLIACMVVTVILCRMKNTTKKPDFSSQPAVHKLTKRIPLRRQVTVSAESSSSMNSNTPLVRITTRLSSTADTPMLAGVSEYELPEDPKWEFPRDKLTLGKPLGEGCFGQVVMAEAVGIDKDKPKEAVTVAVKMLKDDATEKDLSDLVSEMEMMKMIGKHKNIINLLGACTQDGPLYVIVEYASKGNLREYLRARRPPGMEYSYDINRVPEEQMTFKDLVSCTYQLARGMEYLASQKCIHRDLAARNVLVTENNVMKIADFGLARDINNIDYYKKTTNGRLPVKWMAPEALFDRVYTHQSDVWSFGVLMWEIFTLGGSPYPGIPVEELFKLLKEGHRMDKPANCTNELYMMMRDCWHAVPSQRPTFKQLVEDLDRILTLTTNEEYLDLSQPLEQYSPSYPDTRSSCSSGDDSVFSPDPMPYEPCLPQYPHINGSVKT

IC50 [1] | IC50 ([4]; Homo sapiens, SNU-16, 72 h) | IC50 ([4]; 72 h, read-out: Cell SNU-16 IC50) | SMILES | Selectivity FGFR1/FGFR2 [2] | Selectivity FGFR3/FGFR2 [3]
> 10 nM | ≤ 10 nM |  | C=CC(=O)Nc1ccc(-c2nn3ncnc(N)c3c2-c2ccc(C(=O)NC3CCC3)c(C)c2)cc1 [Compound 74, 4-(6-(4-acrylamidophenyl)-4-aminopyrazolo[5,1-f][1,2,4]triazin-5-yl)-N-cyclobutyl-2-methylbenzamide] | C (Selectivity of FGFR1/FGFR2 less than 200 but greater than or equal to 100) | A+ (Selectivity of FGFR3/FGFR2 greater or equal to 150)
< 5 nM | ≤ 10 nM |  | C=C(F)C(=O)Nc1ccc(-c2nn3ncnc(N)c3c2-c2ccc(C(=O)NC3(C(F)(F)F)CC3)c(OC)c2)c(OC)c1 [Compound 415] | B (Selectivity of FGFR1/FGFR2 less than 300 but greater than or equal to 200) | B (Selectivity of FGFR3/FGFR2 less than 100 but greater than or equal to 25)
> 10 nM | ≤ 10 nM |  | C=C(C)C(=O)Nc1ccc(-c2c(-c3ccc(Oc4nccc(C)n4)cc3)c3c(N)ncc(C#N)c3n2C)c(C)c1 [Compound 488, N-(4-(4-amino-7-cyano-1-methyl-3-(4-((4-methylpyrimidin-2-yl)oxy)phenyl)-1H-pyrrolo[3,2-c]pyridin-2-yl)-3-methylphenyl)methacrylamide] | A+ (Selectivity of FGFR1/FGFR2 greater or equal to 500) | A+ (Selectivity of FGFR3/FGFR2 greater or equal to 150)
> 10 nM | ≤ 10 nM |  | C=C(F)C(=O)Nc1ccc(-c2nn3ncnc(N)c3c2-c2ccc(C(=O)NCC(F)F)c(OC)c2)c(F)c1 [Compound 289] | C (Selectivity of FGFR1/FGFR2 less than 200 but greater than or equal to 100) | B (Selectivity of FGFR3/FGFR2 less than 100 but greater than or equal to 25)
< 5 nM | ≤ 10 nM |  | C=CC(=O)Nc1ccc(-c2c(-c3ccc(C(=O)NC4CC4)c(OC)c3)c3c(N)ncc(C#N)c3n2CC(F)(F)F)cc1 [Compound 342] | B (Selectivity of FGFR1/FGFR2 less than 300 but greater than or equal to 200) | A+ (Selectivity of FGFR3/FGFR2 greater or equal to 150)
< 5 nM | ≤ 10 nM |  | C=CC(=O)Nc1ccc(-c2c(-c3ccc(C(=O)NC4CCC4)c(OC)c3)c3c(N)ncc(C#N)c3n2CCOC)cc1 [Compound 59, 4-(2-(4-acrylamidophenyl)-4-amino-7-cyano-1-(2-methoxyethyl)-1H-pyrrolo[3,2-c]pyridin-3-yl)-N-cyclobutyl-2-methoxybenzamide] | A (Selectivity of FGFR1/FGFR2 less than 500 but greater than or equal to 300) | A (Selectivity of FGFR3/FGFR2 less than 150 but greater than or equal to 100)
5 to 10 nM | ≤ 10 nM |  | C=CC(=O)Nc1ccc(-c2nn3ncnc(N)c3c2-c2ccc(C(=O)NCCF)c(OC)c2)cc1 [Compound 194, 4-(6-(4-acrylamidophenyl)-4-aminopyrazolo[5,1-f][1,2,4]triazin-5-yl)-N-(2-fluoroethyl)-2-methoxybenzamide] | B (Selectivity of FGFR1/FGFR2 less than 300 but greater than or equal to 200) | A+ (Selectivity of FGFR3/FGFR2 greater or equal to 150)
< 5 nM | ≤ 10 nM |  | C=C(F)C(=O)Nc1ccc(-c2[nH]c3c(C#N)cnc(N)c3c2-c2ccc(C(=O)NC3CC3)c(OC)c2)c(F)c1 [Compound 267, 4-(4-amino-7-cyano-2-(2-fluoro-4-(2-fluoroacrylamido)phe-nyl)-1H-pyrrolo[3,2-c]pyridin-3-yl)-N-cyclopropyl-2-methoxybenzamide] | B (Selectivity of FGFR1/FGFR2 less than 300 but greater than or equal to 200) | A+ (Selectivity of FGFR3/FGFR2 greater or equal to 150)
< 5 nM |  | ≤ 10 nM | C=C(F)C(=O)Nc1ccc(-c2nn3ncnc(N)c3c2-c2ccc(C(=O)NCC(C)C)cc2)cc1 [Compound 48, 4-(4-amino-6-(4-(2-fluoroacrylamido)phe-nyl)pyrazolo[5,1-f] [1,2,4]triazin-5-yl)-N-isobutylbenzamide] | A+ (Selectivity of FGFR1/FGFR2 greater or equal to 500) | B (Selectivity of FGFR3/FGFR2 less than 100 but greater than or equal to 25)
< 5 nM | ≤ 10 nM |  | C=CC(=O)Nc1ccc(-c2[nH]c3c(C#N)cnc(N)c3c2-c2ccc(Oc3nccc(C)n3)c(OC)c2)cc1 [Compound 22, N-(4-(4-amino-7-cyano-3-(3-methoxy-4-((4-methylpyrimidin-2-yl)oxy)phenyl)-1H-pyrrolo[3,2-c]pyridin-2-yl)phenyl)acrylamide] | A (Selectivity of FGFR1/FGFR2 less than 500 but greater than or equal to 300) | B (Selectivity of FGFR3/FGFR2 less than 100 but greater than or equal to 25)
> 10 nM | ≤ 10 nM |  | C=CC(=O)Nc1ccc(-c2nn3ncnc(N)c3c2-c2ccc(NC(=O)C3CC(F)(F)C3)c(OC)c2)cc1 [Compound 340, N-(4-(6-(4-acrylamidophenyl)-4-aminopyrazolo[5,1-f][1,2,4]triazin-5-yl)-2-methoxyphenyl)-3,3-difluorocyclobutane-1-carboxamide] | B (Selectivity of FGFR1/FGFR2 less than 300 but greater than or equal to 200) | A (Selectivity of FGFR3/FGFR2 less than 150 but greater than or equal to 100)
5 to 10 nM | ≤ 10 nM |  | C=C(F)C(=O)Nc1ccc(-c2c(-c3ccc(C(=O)NC4CCC4)cc3)c3c(N)ncc(C#N)c3n2C)cc1 [Compound 97, 4-(4-amino-7-cyano-2-(4-(2-fluoroacrylamido)phe-nyl)-1-methyl-1H-pyrrolo[3,2-c]pyridin-3-yl)-N-cyclobutylbenzamide] | A+ (Selectivity of FGFR1/FGFR2 greater or equal to 500) | A+ (Selectivity of FGFR3/FGFR2 greater or equal to 150)
< 5 nM | ≤ 10 nM |  | C=CC(=O)Nc1ccc(-c2c(-c3ccc(C(=O)NC4CC(F)C4)c(OC)c3)c3c(N)ncc(C#N)c3n2C)cc1 (stereo not shown) [Compound 168, 4-(2-(4-acrylamidophenyl)-4-amino-7-cyano-1-methyl-1H-pyrrolo[3,2-c]pyridin-3-yl)-N-(3-fluorocyclobutyl)-2-methoxybenzamide] | A+ (Selectivity of FGFR1/FGFR2 greater or equal to 500) | A+ (Selectivity of FGFR3/FGFR2 greater or equal to 150)
< 5 nM | ≤ 10 nM |  | C=C(F)C(=O)Nc1ccc(-c2nn3ncnc(N)c3c2-c2ccc(C(=O)NC3CC3(F)F)c(OC)c2)c(F)c1 (stereo not shown) [Compound 271] | C (Selectivity of FGFR1/FGFR2 less than 200 but greater than or equal to 100) | B (Selectivity of FGFR3/FGFR2 less than 100 but greater than or equal to 25)
< 5 nM | ≤ 10 nM |  | C=C(F)C(=O)Nc1ccc(-c2nn3ncnc(N)c3c2-c2ccc(C(=O)NC3CC3)c(OC)c2)c(Cl)c1 [Compound 199, 4-(4-amino-6-(2-chloro-4-(2-fluoroacrylamido)phe-nyl)pyrazolo[5,1-f][1,2,4]triazin-5-yl)-N-cyclopropyl-2-methoxybenzamide] | A+ (Selectivity of FGFR1/FGFR2 greater or equal to 500) | A+ (Selectivity of FGFR3/FGFR2 greater or equal to 150)
< 5 nM | ≤ 10 nM |  | C=CC(=O)Nc1ccc(-c2c(-c3ccc(Oc4ncccn4)c(F)c3)c3c(N)ncc(C#N)c3n2C)cc1 [Compound 443, N-(4-(4-amino-7-cyano-3-(3-fluoro-4-(pyrimidin-2-yloxy)phenyl)-1-methyl-1H-pyrrolo[3,2-c]pyridin-2-yl)phenyl)acrylamide] | C (Selectivity of FGFR1/FGFR2 less than 200 but greater than or equal to 100) | B (Selectivity of FGFR3/FGFR2 less than 100 but greater than or equal to 25)
